Structures can show the parent of a compound that is named as a salt.
Biological target: T1, androgen receptor (Rattus norvegicus, UniProt P15207)
T1 sequence (P15207 1-902): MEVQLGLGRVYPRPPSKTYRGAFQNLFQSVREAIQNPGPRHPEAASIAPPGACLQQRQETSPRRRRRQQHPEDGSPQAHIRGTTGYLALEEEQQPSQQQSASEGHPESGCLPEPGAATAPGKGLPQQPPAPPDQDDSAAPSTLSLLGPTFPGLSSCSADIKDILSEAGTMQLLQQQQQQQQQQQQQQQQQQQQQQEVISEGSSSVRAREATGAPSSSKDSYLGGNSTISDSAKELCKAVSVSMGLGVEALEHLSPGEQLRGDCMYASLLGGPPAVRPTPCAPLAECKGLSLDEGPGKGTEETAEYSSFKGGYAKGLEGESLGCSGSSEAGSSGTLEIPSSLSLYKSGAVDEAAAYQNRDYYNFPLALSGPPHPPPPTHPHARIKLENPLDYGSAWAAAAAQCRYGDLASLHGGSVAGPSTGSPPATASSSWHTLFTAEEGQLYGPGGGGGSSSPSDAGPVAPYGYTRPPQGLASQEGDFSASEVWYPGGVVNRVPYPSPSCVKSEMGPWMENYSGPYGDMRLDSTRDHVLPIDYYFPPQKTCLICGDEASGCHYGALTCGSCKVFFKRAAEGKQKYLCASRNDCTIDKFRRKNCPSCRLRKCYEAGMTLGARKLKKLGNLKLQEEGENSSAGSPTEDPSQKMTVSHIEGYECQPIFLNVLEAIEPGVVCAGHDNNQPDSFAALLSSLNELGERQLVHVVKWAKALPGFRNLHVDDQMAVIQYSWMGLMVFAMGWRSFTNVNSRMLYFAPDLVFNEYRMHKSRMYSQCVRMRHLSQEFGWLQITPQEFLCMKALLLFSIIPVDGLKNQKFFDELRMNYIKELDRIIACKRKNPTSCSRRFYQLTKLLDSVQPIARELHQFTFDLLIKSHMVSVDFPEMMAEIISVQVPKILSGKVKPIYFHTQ
Assay: Measurement of organ selective androgen receptor regulating action (organ weights in castrated, testosterone propionate-supplemented rats)
Type: in vivo, Sprague-Dawley male rat
Parameters: from tissue; host or cells: Sprague-Dawley male rat, whole animal (levator ani muscle, prostate, vesicular gland)
Settings: testosterone propionate 0.5 mg/kg s.c. once a day, twice a day, 1 week
Procedure: A 3-week-old Sprague-Dawley male rat was castrated, and testosterone•propionate (0.5 mg/kg) was administered subcutaneously once a day from the next day. Simultaneously, a test compound was dissolved in 10% ethanol/corn oil, and orally administered twice a day. The next day of a 1 week administration, the weights of the levator ani muscle, prostate and vesicular gland were measured. The dose of the test compound is indicated in a daily amount.
As the test compounds, compound 114, compound 158, compound 117, compound 119 and compound of Reference Example 2 were used.

[1] = test compound 4.143 mg/kg/day orally
[2] = test compound 13.81 mg/kg/day orally
[3] = test compound 0.4138 mg/kg/day orally
[4] = test compound 1.379 mg/kg/day orally
[5] = test compound 3 mg/kg/day orally
[6] = test compound 10 mg/kg/day orally

## 4-[(2S,3R)-3-hydroxy-2-methyl-1-pyrrolidinyl]-1-naphtonitrile methanesulfonate [compound 114]
[1]
  levator ani muscle weight, relative % to control: 142.1%
  prostate weight, relative % to control: 90.6%
[2]
  levator ani muscle weight, relative % to control: 157.7%
  prostate weight, relative % to control: 99.1%

## C[C@H]1[C@@H](O)CCN1c1ccc(C#N)c2sccc12 [compound 119, 4-[(2S,3S)-3-hydroxy-2-methyl-1-pyrrolidinyl]-1-benzothiophene-7-carbonitrile sulfate]
[3]
  levator ani muscle weight, relative % to control: 131.5%
  prostate weight, relative % to control: 87.8%
[4]
  levator ani muscle weight, relative % to control: 151.8%
  prostate weight, relative % to control: 91.4%

## C[C@H]1[C@@H](C(C)(C)O)CCN1c1ccc(C#N)c2sccc12 [Reference Example 2, 4-[(2S,3S)-3-(1-hydroxy-1-methylethyl)-2-methylpyrrolidin-1-yl]-1-benzothiophene-7-carbonitrile]
[5]
  levator ani muscle weight, relative % to control: 108.0%
  prostate weight, relative % to control: 92.0%
[6]
  levator ani muscle weight, relative % to control: 120.1%
  prostate weight, relative % to control: 87.5%

Reference: patent US20090042857A1, “Novel Pharmaceutical” (priority 2006, published 2009)
